# Columns and labels:
# Type in all cases: functional
# Trichophyton rubrum = assay: Antifungal activity against Trichophyton rubrum
# Sporothrix schenckii = assay: Antifungal activity against Sporothrix schenckii
# Candida albicans = assay: Antifungal activity against Candida albicans
# Cryptococcus neoformans = assay: Antifungal activity against Cryptococcus neoformans
# Aspergillus fumigatus = assay: Antifungal activity against Aspergillus fumigatus
# Candida parapsilosis = assay: Antifungal activity against Candida parapsilosis; details: Lodderomyces parapsilosis
# Fonsecaea pedrosoi = assay: Antifungal activity against Fonsecaea pedrosoi
# Candida tropicalis = assay: Antifungal activity against Candida tropicalis
# Microsporum = assay: Antifungal activity against Microsporum lanosum
compound,measurement,setting,value
CN(Cc1ccc(-n2cnn(CC(=O)c3ccc(C(C)(C)C)cc3)c2=O)cc1)CC(O)(Cn1cncn1)c1ccc(F)cc1F (stereo unspecified),MIC80,Trichophyton rubrum,64 µg/mL
same,MIC80,Sporothrix schenckii,64 µg/mL
same,MIC80,Candida albicans,0.0625 µg/mL
same,MIC80,Cryptococcus neoformans,32 µg/mL
same,MIC80,Aspergillus fumigatus,64 µg/mL
same,MIC80,Candida parapsilosis,2 µg/mL
same,MIC80,Fonsecaea pedrosoi,2 µg/mL
same,MIC80,Candida tropicalis,0.5 µg/mL
Cc1ccc(C(=O)Cn2ncn(-c3ccc(CN(C)CC(O)(Cn4cncn4)c4ccc(F)cc4F)cc3)c2=O)cc1 (stereo unspecified),MIC80,Trichophyton rubrum,1 µg/mL
same,MIC80,Sporothrix schenckii,64 µg/mL
same,MIC80,Candida albicans,0.002 µg/mL
same,MIC80,Cryptococcus neoformans,0.125 µg/mL
same,MIC80,Aspergillus fumigatus,16 µg/mL
same,MIC80,Candida parapsilosis,0.008 µg/mL
same,MIC80,Fonsecaea pedrosoi,0.125 µg/mL
same,MIC80,Candida tropicalis,0.0312 µg/mL
CN(Cc1ccc(-n2cnn(CC(=O)c3ccc(Cl)cc3Cl)c2=O)cc1)CC(O)(Cn1cncn1)c1ccc(F)cc1F (stereo unspecified),MIC80,Trichophyton rubrum,32 µg/mL
same,MIC80,Sporothrix schenckii,64 µg/mL
same,MIC80,Candida albicans,0.031 µg/mL
same,MIC80,Cryptococcus neoformans,16 µg/mL
same,MIC80,Aspergillus fumigatus,64 µg/mL
same,MIC80,Candida parapsilosis,1 µg/mL
same,MIC80,Fonsecaea pedrosoi,4 µg/mL
same,MIC80,Candida tropicalis,0.125 µg/mL
CN(Cc1ccc(NC(=O)c2ccccc2)cc1)CC(O)(Cn1cncn1)c1ccc(F)cc1F (stereo unspecified),MIC80,Trichophyton rubrum,0.5 µg/mL
same,MIC80,Candida albicans,0.031 µg/mL
same,MIC80,Cryptococcus neoformans,1 µg/mL
same,MIC80,Aspergillus fumigatus,32 µg/mL
same,MIC80,Candida parapsilosis,0.0625 µg/mL
same,MIC80,Fonsecaea pedrosoi,1 µg/mL
same,MIC80,Candida tropicalis,0.125 µg/mL
same,MIC80,Microsporum,4 µg/mL
CN(Cc1ccc(-n2cnn(Cc3ccc([N+](=O)[O-])cc3)c2=O)cc1)CC(O)(Cn1cncn1)c1ccc(F)cc1F (stereo unspecified),MIC80,Trichophyton rubrum,16 µg/mL
same,MIC80,Sporothrix schenckii,64 µg/mL
same,MIC80,Candida albicans,0.0625 µg/mL
same,MIC80,Cryptococcus neoformans,16 µg/mL
same,MIC80,Aspergillus fumigatus,64 µg/mL
same,MIC80,Candida parapsilosis,0.25 µg/mL
same,MIC80,Fonsecaea pedrosoi,4 µg/mL
same,MIC80,Candida tropicalis,0.0625 µg/mL
Cc1cccc(Cn2ncn(-c3ccc(CN(C)CC(O)(Cn4cncn4)c4ccc(F)cc4F)cc3)c2=O)c1 (stereo unspecified),MIC80,Trichophyton rubrum,0.5 µg/mL
same,MIC80,Sporothrix schenckii,64 µg/mL
same,MIC80,Candida albicans,0.004 µg/mL
same,MIC80,Cryptococcus neoformans,1 µg/mL
same,MIC80,Aspergillus fumigatus,16 µg/mL
same,MIC80,Candida parapsilosis,0.008 µg/mL
same,MIC80,Fonsecaea pedrosoi,1.25 µg/mL
same,MIC80,Candida tropicalis,0.125 µg/mL
CN(Cc1ccc(NC(=O)c2ccc(I)cc2)cc1)CC(O)(Cn1cncn1)c1ccc(F)cc1F (stereo unspecified),MIC80,Trichophyton rubrum,≤ 0.125 µg/mL
same,MIC80,Candida albicans,0.0625 µg/mL
same,MIC80,Cryptococcus neoformans,≤ 0.031 µg/mL
same,MIC80,Aspergillus fumigatus,> 64 µg/mL
same,MIC80,Candida parapsilosis,0.5 µg/mL
same,MIC80,Fonsecaea pedrosoi,≤ 0.125 µg/mL
same,MIC80,Candida tropicalis,0.25 µg/mL
same,MIC80,Microsporum,≤ 0.125 µg/mL
CN(Cc1ccc(-n2cnn(Cc3ccc(OC(F)(F)F)cc3)c2=O)cc1)CC(O)(Cn1cncn1)c1ccc(F)cc1F (stereo unspecified),MIC80,Trichophyton rubrum,0.25 µg/mL
same,MIC80,Sporothrix schenckii,32 µg/mL
same,MIC80,Candida albicans,0.002 µg/mL
same,MIC80,Cryptococcus neoformans,0.016 µg/mL
same,MIC80,Aspergillus fumigatus,8 µg/mL
same,MIC80,Candida parapsilosis,0.008 µg/mL
same,MIC80,Fonsecaea pedrosoi,0.125 µg/mL
same,MIC80,Candida tropicalis,0.0312 µg/mL
CN(Cc1ccc(-n2cnn(Cc3ccccc3Cl)c2=O)cc1)CC(O)(Cn1cncn1)c1ccc(F)cc1F (stereo unspecified),MIC80,Trichophyton rubrum,4 µg/mL
same,MIC80,Sporothrix schenckii,32 µg/mL
same,MIC80,Candida albicans,0.004 µg/mL
same,MIC80,Cryptococcus neoformans,1 µg/mL
same,MIC80,Aspergillus fumigatus,32 µg/mL
same,MIC80,Candida parapsilosis,0.06 µg/mL
same,MIC80,Fonsecaea pedrosoi,0.5 µg/mL
same,MIC80,Candida tropicalis,0.125 µg/mL
CN(Cc1ccc(-n2cnn(Cc3ccccc3F)c2=O)cc1)CC(O)(Cn1cncn1)c1ccc(F)cc1F (stereo unspecified),MIC80,Trichophyton rubrum,1 µg/mL
same,MIC80,Sporothrix schenckii,64 µg/mL
same,MIC80,Candida albicans,0.031 µg/mL
same,MIC80,Cryptococcus neoformans,1 µg/mL
same,MIC80,Aspergillus fumigatus,32 µg/mL
same,MIC80,Candida parapsilosis,2 µg/mL
same,MIC80,Fonsecaea pedrosoi,0.0625 µg/mL
same,MIC80,Candida tropicalis,0.0625 µg/mL
CN(Cc1ccc(-n2cnn(CC(=O)c3ccc(F)cc3)c2=O)cc1)CC(O)(Cn1cncn1)c1ccc(F)cc1F (stereo unspecified),MIC80,Trichophyton rubrum,2 µg/mL
same,MIC80,Sporothrix schenckii,64 µg/mL
same,MIC80,Candida albicans,0.004 µg/mL
same,MIC80,Cryptococcus neoformans,1 µg/mL
same,MIC80,Aspergillus fumigatus,64 µg/mL
same,MIC80,Candida parapsilosis,0.06 µg/mL
same,MIC80,Fonsecaea pedrosoi,0.0625 µg/mL
same,MIC80,Candida tropicalis,0.0625 µg/mL
CN(Cc1ccc(-n2cnn(Cc3cccc(I)c3)c2=O)cc1)CC(O)(Cn1cncn1)c1ccc(F)cc1F (stereo unspecified),MIC80,Trichophyton rubrum,0.25 µg/mL
same,MIC80,Sporothrix schenckii,64 µg/mL
same,MIC80,Candida albicans,0.002 µg/mL
same,MIC80,Cryptococcus neoformans,0.25 µg/mL
same,MIC80,Aspergillus fumigatus,2 µg/mL
same,MIC80,Candida parapsilosis,0.008 µg/mL
same,MIC80,Fonsecaea pedrosoi,0.0625 µg/mL
same,MIC80,Candida tropicalis,0.0625 µg/mL
CN(Cc1ccc(-n2cnn(Cc3ccc(F)cc3)c2=O)cc1)CC(O)(Cn1cncn1)c1ccc(F)cc1F (stereo unspecified),MIC80,Trichophyton rubrum,8 µg/mL
same,MIC80,Sporothrix schenckii,32 µg/mL
same,MIC80,Candida albicans,0.004 µg/mL
same,MIC80,Cryptococcus neoformans,4 µg/mL
same,MIC80,Aspergillus fumigatus,64 µg/mL
same,MIC80,Candida parapsilosis,4 µg/mL
same,MIC80,Fonsecaea pedrosoi,1 µg/mL
same,MIC80,Candida tropicalis,1 µg/mL
CN(Cc1ccc(NC(=O)c2ccc(Br)cc2)cc1)CC(O)(Cn1cncn1)c1ccc(F)cc1F (stereo unspecified),MIC80,Trichophyton rubrum,≤ 0.125 µg/mL
same,MIC80,Candida albicans,0.008 µg/mL
same,MIC80,Cryptococcus neoformans,0.125 µg/mL
same,MIC80,Aspergillus fumigatus,16 µg/mL
same,MIC80,Candida parapsilosis,0.016 µg/mL
same,MIC80,Fonsecaea pedrosoi,≤ 0.125 µg/mL
same,MIC80,Candida tropicalis,0.016 µg/mL
same,MIC80,Microsporum,0.25 µg/mL
COc1ccc(C(=O)Cn2ncn(-c3ccc(CN(C)CC(O)(Cn4cncn4)c4ccc(F)cc4F)cc3)c2=O)cc1 (stereo unspecified),MIC80,Trichophyton rubrum,4 µg/mL
same,MIC80,Sporothrix schenckii,64 µg/mL
same,MIC80,Candida albicans,0.016 µg/mL
same,MIC80,Cryptococcus neoformans,8 µg/mL
same,MIC80,Aspergillus fumigatus,32 µg/mL
same,MIC80,Candida parapsilosis,0.03 µg/mL
same,MIC80,Fonsecaea pedrosoi,1 µg/mL
same,MIC80,Candida tropicalis,0.125 µg/mL
CN(Cc1ccc(-n2cnn(Cc3ccccc3)c2=O)cc1)CC(O)(Cn1cncn1)c1ccc(F)cc1F (stereo unspecified),MIC80,Trichophyton rubrum,16 µg/mL
same,MIC80,Sporothrix schenckii,64 µg/mL
same,MIC80,Candida albicans,0.031 µg/mL
same,MIC80,Cryptococcus neoformans,64 µg/mL
same,MIC80,Aspergillus fumigatus,64 µg/mL
same,MIC80,Candida parapsilosis,0.016 µg/mL
same,MIC80,Fonsecaea pedrosoi,0.5 µg/mL
same,MIC80,Candida tropicalis,1 µg/mL
CCc1ccc(Cn2ncn(-c3ccc(CN(C)CC(O)(Cn4cncn4)c4ccc(F)cc4F)cc3)c2=O)cc1 (stereo unspecified),MIC80,Trichophyton rubrum,0.5 µg/mL
same,MIC80,Sporothrix schenckii,64 µg/mL
same,MIC80,Candida albicans,0.008 µg/mL
same,MIC80,Cryptococcus neoformans,0.5 µg/mL
same,MIC80,Aspergillus fumigatus,8 µg/mL
same,MIC80,Candida parapsilosis,0.008 µg/mL
same,MIC80,Fonsecaea pedrosoi,0.25 µg/mL
same,MIC80,Candida tropicalis,0.25 µg/mL
